Several values for one entry are separate records, joined by “and”; a condition that tells them apart may be missing. Identical values can stand only once.
Test: UV-B absorption profile (UV-VIS spectra, HPLC-PDA profiling)
Type: physicochemical
Procedure: Column chromatography was carried out over ODS (Nacalai Tesque, Cosmosil 75C18-OPN). HPLC analysis was carried out on an Atlantis® (ϕ4.6×150 mm, Waters) at a flow rate of 0.5 ml min^1. Preparative HPLC was performed on a LC 10A system (Shimadzu) using an Inertsil® ODS-EP 5 m ($6.0×150 mm) at 30° C. and monitoring was accomplished by PDA (200-600 nm). HPLC-PDA-ESI-MS (HPLC/photodiode array detection/electrospray ionization mass spectrometry) was performed on a Finnigan LCQ-DECA mass spectrometer (ThermoQuest, San Jose, Calif., USA) and an Agilent HPLC 1100 series (Agilent Technologies, Palo Alto, Calif., USA). HR-ESI-MS was performed on an Exactive™ mass spectrometer (ThermoQuest, San Jose, Calif., USA). Optical rotations were determined on a JASCO P-1020. UV spectra were recorded on a JASCO V-560. NMR data were recorded on JEOL JNM ECP-600. The deuterated solvent CD3OD was used for peak 4. Coupling constants are expressed in Hz.
UV-VIS spectra in the range between 260 nm and 450 nm were recorded and analyzed via HPLC-PDA profiling for kaempferol-3-Glc-2″-Rha-7Rha (FIG. 3A), saiginol A (kaempferol-3-Glc-2″-Rha-6″-sinapoyl-7Rha, FIG. 3B) and sinapoyl-glucose (FIG. 3C). HPLC-PDA (HPLC/photodiode array detection) was performed on Dionex Ultimate 3000 system (San Jose, Calif., USA). […]

Row | Structure (SMILES) | Amax (UV-VIS absorption maximum) (UV-VIS spectrum, UV (MeOH)) | UV-B absorption (efficiency / UV-B absorbent properties) (UV-VIS spectra 260-450 nm, HPLC-PDA profiling, FIG. 3)
1 | COc1cc(/C=C/C(=O)OC[C@H]2O[C@@H](Oc3c(-c4ccc(O)cc4)oc4cc(O[C@@H]5O[C@@H](C)[C@H](O)[C@@H](O)[C@H]5O)cc(O)c4c3=O)[C@H](O[C@@H]3O[C@@H](C)[C@H](O)[C@@H](O)[C@H]3O)[C@@H](O)[C@@H]2O)cc(OC)c1O [Saiginol A, Kaempferol-3-O-[2-O-(α-L-rhamnopyranosyl)-6-O-(sinapoyl)-β-D-glucopyranoside]-7-O-α-L-rhamnopyranoside] | 201.5 nm and 223.0 nm and 266.5 nm and 331.5 nm | –
2 | CC1OC(Oc2cc(O)c3c(=O)c(OC4OC(CO)C(O)C(O)C4OC4OC(C)C(O)C(O)C4O)c(-c4ccc(O)cc4)oc3c2)C(O)C(O)C1O (centres unmarked) [kaempferol-3-Glc-2″-Rha-7Rha, kaempferol-3-O-Glc-2″-O-Rha-7-O-Rha, reference compound] | – | much less efficient

From patent publication US20200079812A1, “UV-B ABSORBING COMPOUNDS ISOLATED FROM PLANTS” (MAX-PLANCK-GESELLSCHAFT ZUR FÖRDERUNG DER WISSENSCHAFTEN …, priority 2015, published 2020)
